Reference: US9233127B2, “Compositions and methods for CXCR4 signaling and umbilical cord blood stem cell engraftment” (University of Virginia Patent Foundation, priority 2012, dated 2016)

How the values were obtained:
[1] = test system: UCB progenitors (human CD45 cells); assay: Long-term human engraftment of C3a primed UCB in NOD/SCID mice; format: in vivo
Method: FIG. 5A-B—Long-Term Engraftment of C3a Primed Progenitors (comprising upper and lower panels).
FIG. 54A-B—NOD.SCID engraftment comparing C3a Primed UCB vs. Control. […] 54A—control; 54B—C3a
These laboratory experiments were performed to evaluate responsiveness of UCB to SDF-1 gradient correlated with an outcome of injections in NOD/SCID mice to evaluate engraftment in vivo. In vivo studies incorporated humanized NOD.SCID/IL2rγ^null (NOG) mice were conducted to assess proportions and kinetics of human HSC homing, engraftment, comparing C3a primed UCB CD34^+ HSC vs. controls. NOD.SCID/IL2rγ^null is used in our studies as these mice lack the cytoplasmic region of the IL-2Rγ and reproducibly develop human T, myeloid, NK, and B-lymphoid cells when transplanted with cord blood CD34^+ cells. This model therefore provides a platform to analyze in vivo competitive repopulation of the full lymphopoietic system. […] More mature progenitors are considered to have exhausted after 8 weeks in this NOD.SCID model and human cells present are presumed to be derived from transplanted primitive progenitor cells. HLA staining was used to determine UCB chimerism and relative contribution of C3a primed UCB CD34^+ HSC to marrow engraftment.

UCB CD34+ cells = assay: Transwell chemotaxis of UCB CD34+ cells to SDF-1 (priming); format: cell-based, human
Method: FIG. 11A-B—Effect of SLP and its components on chemotaxis of CD34^+ cells. Panel A: Chemotaxis of BM CD34^+ cells towards medium alone (control), SDF-1 low (10 ng/mL) alone, SLP (combined SLP from three patients), SDF-1 low+SLP, and SDF-1 high (300 ng/mL). Data are pooled from quadruplicate samples from three independent experiments. *p<0.00001. Panel B: Chemotaxis of UCB CD34^+ cells to medium alone (control), SDF-1 low (10 ng/mL) alone and SDF-1 low (10 ng/mL)+uPAR (1 μg/mL) or +ICAM (1 μg/mL) or +VCAM (1 μg/mL) or +FN (2 μg/mL), or +FG (4 μg/mL) or +C3a (1 μg/mL). Data are pooled from quadruplicate samples from three independent experiments. * p<0.00001.
An increased migration of UCB-derived CD34^+ cells, as compared to BM and mPB CD34^+ cells was reported in transwell migration assays was previously reported. However, we noticed large inter-individual differences in the in vitro migratory ability of UCB CD34^+ cells, ranging from 1.1% to 14.3% for spontaneous migration and 3.1% to 62.3% for SDF-1-induced (300 ng/mL) migration. The lower migratory capacity in vitro of UCB-derived CD34^+ cells was not due to lower expression of CXCR4, but likely reflects the decreased migratory behavior of these cells. […] Based on this, we postulate that UCB HSPC responsiveness to an SDF-1 gradient varies with each collected UCB unit and that, in cases when responsiveness is low, UCB HSPCs should be identified and primed before infusion.
Moreover, as SLP contains several components that potentially could prime the responses of CD34^+ cells, (Example 2, FIG. 11, panel B) the most important being PMV and activated complement proteins such as anaphylatoxin C3a, soluble VCAM-1, soluble ICAM-1, uPAR, FG, and FN, we evaluated whether these factors could induce the chemotaxis of HSPCs when used alone. […] We also examined whether FG, FN, soluble VCAM-1, soluble ICAM-1, uPAR, and C3a prime HSPCs in their responses to SDF-1. […] To determine whether this also affects UCB CD34^+ clonogenic progenitors, UCB CD34^+ cells were collected from the lower chambers after the chemotaxis assay and plated in methylcellulose cultures. […] Moreover, a similar effect for the established hematopoietic cell lines Molt 4, Nalm-6, and THP-1 was also found (data not shown).

CXCR4 = assay: Western blot of CXCR4 in lipid raft membrane fractions of THP-1 cells; format: cell-based, human
Method: FIG. 15A-B—Western blot analysis of the colocalization of CXCR4 in fractions of cell membranes enriched in lipid rafts (fractions 3-5) and depleted of lipid rafts (fractions 9-11). Panel A: Hematopoietic THP-1 cells were stimulated by C3a (1 μg/mL) or desArgC3a (1 μg/mL) or not stimulated (control). CXCR4 was detected in these membrane fractions by Western blot along with ganglioside GM1, a marker of lipid rafts. Experiments were performed three times with similar results. Panel B: In control experiments, cells were pretreated for 1 hr with 10 mM MβCD. A representative study is shown.
Furthermore, direct evidence of the effect of priming agents on CXCR4 incorporation into membrane lipid rafts was obtained from Western blot analysis of CXCR4 expression in various fractions of cell membranes isolated according to their lipid raft content (Example 2, FIG. 15A-B). […] The role of C3a in incorporation of CXCR4 into membrane lipid rafts in UCB cells and involvement of other signaling molecules to this phenomenon will be evaluated in Aim 1.

[2] = test system: UCB MNC and CD4+45RA+ T-cells; assay: Transmigration of UCB MNC and CD4+/45RA+ T-cells to SDF-1 without and with C3a priming; format: cell-based, human; settings: C3a 1 μg/ml 30 minutes; SDF-1 10 ng/ml, 3 h
Method: FIG. 30A-B—UCB MNC migration to SDF-1. Lymphocytes from SSC/FSC plots were gated to determine the number of transmigrating UCB CD45^+CD4^+ T-cells. A. The total number of transmigrated lymphocytes migrating without and with C3a priming prior to exposure to 10 ng/ml SDF-1 (mean±SD). […] All staining patterns of labeled cells were compared to cells incubated with APC- and PerCP-isotype antibodies to set negative quadrants gates.
FIG. 31A-B—UCB CD4^+45RA T-cell migration to SDF-1. […] A. Percentage of selected CD4^+/45RA^+ T-cells transmigrating without and with C3a priming prior to exposure to 10 ng/ml SDF-1 (mean±SD). B. CD45^+CD4^+ T-cells were observed only in gate P3 in contrast to the transmigration of MNC.
Cord blood MNC (FIG. 30A-B) isolated by Ficoll density gradient centrifugation or naïve CD4^+/45RA^+ T-cells (FIG. 31A-B below), isolated from MNC fractions (Miltenyi), were incubated in DMEM media with 1% human serum albumin or exposed to complement protein C3a (1 μg/ml) for 30 minutes at RT. […] Transmigrated cells were counted (Z Series Coulter counter) and stained with anti-CD4-PerCP anti-CD45-APC antibodies for 20 min in PBS buffer with 10% FBS prior to flow cytometric analyses on a […] in […], cells were fixed in 2% paraformaldehyde prior to acquisition. […]

## C3a: 77 amino acid residue protein derived from the human complement C3a precursor; SEQ ID NO:1
[1]; NOD.SCID at 8 weeks after injection, vs control
  human CD45 cells detected by FACS in marrow: significantly higher
[1]; NOD/SCID mice harvest after 12 weeks, vs unprimed cells
  long-term human engraftment, flow cytometry for human anti-CD45: exhibit long-term human engraftment
UCB CD34+ cells
  SDF-1-mediated transwell cell migration of C3a primed UCB CD34+ HSC: enhanced
UCB CD34+ cells; UCB-derived CD34+ cells exposed/primed
  responsiveness of UCB cells to SDF-1 gradient: significantly increase the responsiveness
UCB CD34+ cells; added to lower chambers with SDF-1 10 ng/mL, uPAR, ICAM, VCAM, C3a 1 μg/mL, FN 2 μg/mL, FG 4 μg/mL
  chemotactic response of UCB CD34+ cells to SDF-1: increased the chemotactic response
UCB CD34+ cells; without SDF-1
  induction of chemotaxis of HSPCs when used alone: no evidence that they did
CXCR4
  incorporation of Rac-1 into membrane lipid rafts: increased the incorporation of Rac-1
CXCR4; 1 μg/mL
  incorporation of CXCR4 into GM1-enriched membrane lipid rafts (fractions 3-5): stimulates incorporation of CXCR4
[2]
  migration of UCB MNC or naïve CD45+ CD4+ cells to a low SDF-1 gradient: prime migration of a portion of the cell populations
